Reference: ChEMBL document CHEMBL1201862, “PubChem BioAssay data set” (2004)
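These data come from cells grown in 96-well plates and exposed to compound for 48 hours at five concentrations. Here, GI50 denotes the concentration required for 50% inhibition of growth.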 The source made the active and inactive calls. Cut-off read from the data, not from the text of the source: active = GI50 up to about 1.1 µM and inactive = higher.

How the values were obtained:
Experiment in all cases: DTP human tumour cell line panel, 48 h
ACHN = tested on: ACHN
HCT-15 = tested on: HCT-15
OVCAR-3 = tested on: OVCAR-3
K562 = tested on: K562
U-251 = tested on: U-251
HL-60 = tested on: HL-60
TK-10 = tested on: TK-10
HT-29 = tested on: HT-29
XF498 = tested on: XF498
CCRF-CEM = tested on: CCRF-CEM
SF-295 = tested on: SF-295
SF-539 = tested on: SF-539
UACC-62 = tested on: UACC-62
OVCAR-4 = tested on: OVCAR-4
MDA-MB-231 = tested on: MDA-MB-231
RXF 393 = tested on: RXF 393
OVCAR-5 = tested on: OVCAR-5
786-0 = tested on: 786-0
M14 = tested on: M14
KM12 = tested on: KM12

Row | SMILES | GI50 (ACHN) | GI50 (HCT-15) | GI50 (OVCAR-3) | GI50 (K562) | GI50 (U-251) | GI50 (HL-60) | GI50 (TK-10) | GI50 (HT-29) | GI50 (XF498) | GI50 (CCRF-CEM) | GI50 (SF-295) | GI50 (SF-539) | GI50 (UACC-62) | GI50 (OVCAR-4) | GI50 (MDA-MB-231) | GI50 (RXF 393) | GI50 (OVCAR-5) | GI50 (786-0) | GI50 (M14) | GI50 (KM12)
1 | CCOC(=O)N1C/C(=C\c2ccccc2)C(=O)/C(=C/c2ccccc2)C1 | 3.84 µM (inactive) | 2.32 µM | 4.23 µM (inactive) | 1.44 µM (inactive) | 1.45 µM (inactive) | 1.24 µM (inactive) | 8.34 µM (inactive) | 1.49 µM (inactive) | 12.8 µM (inactive) | 1.51 µM (inactive) | 3.01 µM (inactive) | 5.08 µM (inactive) | 2.66 µM (inactive) | 2.37 µM (inactive) | 2.24 µM (inactive) | 4.01 µM (inactive) | 6.04 µM (inactive) | 2.9 µM (inactive) | 2.77 µM (inactive) | 2.03 µM (inactive)
2 | Cc1ccc(S(=O)(=O)N(/N=C(\N)Oc2ccc(Cl)cc2)C(=N)Oc2ccc(Cl)cc2)cc1 | > 100 µM (inactive) | > 100 µM | > 100 µM (inactive) | > 100 µM (inactive) | > 100 µM (inactive) | > 100 µM (inactive) | > 100 µM (inactive) | > 100 µM (inactive) | > 100 µM (inactive) | > 100 µM (inactive) | > 100 µM (inactive) | > 100 µM (inactive) | > 100 µM (inactive) | > 100 µM (inactive) |  | 74.1 µM (inactive) | > 100 µM (inactive) | > 100 µM (inactive) | > 100 µM (inactive) | > 100 µM (inactive)
3 | CC1(C)CC(N2CCN(C3CC(C)(C)NC(C)(C)C3)CC2)CC(C)(C)N1 | > 100 µM (inactive) | > 100 µM | > 100 µM (inactive) | > 100 µM (inactive) | > 100 µM (inactive) | > 100 µM (inactive) | > 100 µM (inactive) | > 100 µM (inactive) | > 100 µM (inactive) | > 100 µM (inactive) | > 100 µM (inactive) | > 100 µM (inactive) | > 100 µM (inactive) | > 100 µM (inactive) |  | > 100 µM (inactive) | > 100 µM (inactive) | > 100 µM (inactive) | > 100 µM (inactive) | > 100 µM (inactive)
4 | C=C(COC(C)=O)CC(OC(C)=O)c1ccccc1 (stereo not given) | > 100 µM (inactive) | > 100 µM | > 100 µM (inactive) | > 100 µM (inactive) | > 100 µM (inactive) | > 100 µM (inactive) | > 100 µM (inactive) | > 100 µM (inactive) | > 100 µM (inactive) | 68.4 µM (inactive) | > 100 µM (inactive) | > 100 µM (inactive) | > 100 µM (inactive) | > 100 µM (inactive) |  | > 100 µM (inactive) | > 100 µM (inactive) | > 100 µM (inactive) | > 100 µM (inactive) | > 100 µM (inactive)
5 | COc1ccc(NC(=O)CC(=O)n2nc(-c3ccccc3)c(/N=N/c3ccccc3C)c2-c2ccccc2)cc1 | 26.1 µM (inactive) | 35.5 µM | 17.3 µM (inactive) | > 79.8 µM (inactive) | 16.4 µM (inactive) | 54.6 µM (inactive) | 24.7 µM (inactive) | 44.9 µM (inactive) | 19.3 µM (inactive) | > 61.9 µM (inactive) | 23.3 µM (inactive) | 15.1 µM (inactive) | 19.2 µM (inactive) | 23.9 µM (inactive) | 71 µM (inactive) | 17.3 µM (inactive) | > 100 µM (inactive) | 18.5 µM (inactive) | 40.9 µM (inactive) | 53.3 µM (inactive)
6 | C#CCN(Cc1ccc2nc(-c3ccccc3)c(N)nc2c1)c1cc(OC)c(OC)c(OC)c1 | 22.8 µM (inactive) | 31.9 µM | 15.4 µM (inactive) | 23.8 µM (inactive) | 37 µM (inactive) | 17.9 µM (inactive) | 46.1 µM (inactive) | 23.4 µM (inactive) | 30 µM (inactive) | 17.9 µM (inactive) | 18.7 µM (inactive) | 36.6 µM (inactive) | 20 µM (inactive) | 27.9 µM (inactive) |  | 25.5 µM (inactive) | 48.5 µM (inactive) | 44.7 µM (inactive) | 25.5 µM (inactive) | > 10 µM (inactive)
7 | O=C1NC2(CCCC2)C2CCCCC12O (stereo not given) | > 100 µM (inactive) | > 100 µM | > 100 µM (inactive) | > 100 µM (inactive) | > 100 µM (inactive) | > 100 µM (inactive) | > 100 µM (inactive) | > 100 µM (inactive) | > 100 µM (inactive) | > 100 µM (inactive) | > 100 µM (inactive) | > 100 µM (inactive) | > 100 µM (inactive) | > 100 µM (inactive) |  | > 100 µM (inactive) | > 100 µM (inactive) | > 100 µM (inactive) | > 100 µM (inactive) | > 100 µM (inactive)
